From US20190015400A1, “Antifungal Compositions” (priority 2017, published 2019)
“Also recorded” adds a separate entry of the source. Values belong to the compound of their own block, whether it stands above or below them.

Experiments:
[1] = system: C. albicans ATCC 10231 (strain B) biofilm; experiment: Biofilm disruption assay (XTT, SMIC90), POS and EBA; format: cell-based, Candida albicans; conditions: drug alone
Procedure: (§1) Biofilm disruption assays. […] Biofilm assays were performed in 96-well plates using XTT [2,3-bis(2-methoxy-4-nitro-5-sulfophenyl)-2H-tetrazolium-5-carboxanilide] to measure the viability of the biofilm as previously described. An overnight culture of yeast was grown at 35° C. in YEPD medium with shaking at 200 rpm. The overnight culture was diluted in RPMI 1640 medium to an OD600 between 0.12 and 0.15 to make a working stock. Working stock was transferred to the 96-well plate in 100 μL aliquots, leaving one column empty for the sterile control. The plates were incubated at 37° C. for 24 h to allow formation of the biofilm. The medium and planktonic cells from the plate were then aspirated. PBS was then used to wash any remaining planktonic cells off of the biofilm wells. 100 μL of PBS was aliquoted into wells and then removed. The wells were washed 3 times with PBS. […] Plates were incubated at 37° C. for 24 h. Finally, the plates were washed 3 times with PBS before adding 100 μL of XTT dye. The XTT was prepared by dissolving XTT at 0.5 mg/mL concentration in sterile PBS. Before adding to a plate, 1 μL of 10 mM menadione in acetone was added to 10 mL of the 0.5 mg/mL solution of XTT. After addition of XTT (containing menadione), the plates were incubated at 3 h at 37° C. in the dark. 80 μL of liquid from each well was transferred to a new plate. Plates were then read with a SpectraMax M5 plate reader (Molecular Devices, Sunnyvale, Calif., USA) for absorbance at 450 nm. For these experiments, we determined the sessile MIC (SMIC90), which is defined as the drug concentration required to inhibit the metabolic activity of biofilm by 90% compared to the growth control. The SMIC90 values were used to calculate the FICI as described above (TABLE 10). The plates used to determine the SMIC90 are provided in FIGS. 91A-H. Each assay was performed in duplicate.

[2] = system: C. glabrata ATCC 2001 (strain H) biofilm; experiment: as above; format: cell-based, Candida glabrata; conditions: drug alone
Procedure: as §1

[3] = system: C. albicans ATCC 10231 (strain B); experiment: MIC and checkerboard assay, azoles + compounds 1-5; format: cell-based, Candida albicans
Procedure: (§2) These compounds were serially diluted (two-fold dilutions) horizontally on the plate in 100 μL of RPMI medium. A diluted yeast culture (25 μL of a fungal stock with OD600 of 0.125 in 10 mL of RPMI medium, which achieves a final inoculum size of around 1-5×10^3 CFU/mL) was plated across the plate (100 μL per well), making a final volume of 200 μL total per well.
(§3) The appropriate range of concentrations for each compound was determined based on their corresponding MIC values against each fungal strain. The inoculum size for yeast and filamentous fungi were the same as in the MIC experiments described in section 2.2. The 96-well plates were incubated at 35° C. for 48 h for yeasts and 72 h for the Aspergillus strain before visual inspection for growth. […] The combinational effect of the two tested compounds were considered synergistic (abbreviated SYN) if FICI<0.5, additive (abbreviated ADD) if 0.5<FICI<4, and antagonistic if FICI>4 (TABLES 2-4).

[4] = system: C. albicans ATCC 64124 (strain F); experiment: MIC and checkerboard assay, azoles + compounds 1-5; format: cell-based, Candida albicans; conditions: for MIC in combination: MIC of the labelled drug; for MICalone: drug alone; for fold reduction in MIC (combination vs alone): reduction for the labelled drug
Procedure: as §2, §3

[5] = system: C. glabrata ATCC 2001 (strain H); experiment: MIC and checkerboard assay, azoles + compounds 1-5; format: cell-based, Candida glabrata
Procedure: as §2, §3

[6] = system: C. albicans ATCC 90819 (strain G); experiment: MIC and checkerboard assay, azoles + compounds 1-5; format: cell-based, Candida albicans
Procedure: as §2, §3

[7] = system: Aspergillus terreus ATCC MYA-3633 (strain I); experiment: MIC and checkerboard assay, azoles + compounds 1-5; format: cell-based; conditions: in combination with POS
Procedure: as §2, §3

[8] = system: C. albicans ATCC 64124 (strain F); experiment: Time-kill assay, azoles + compound 2; format: cell-based, Candida albicans
Procedure: Each sample was incubated at 35° C. with shaking at 200 rpm. At various time points (0, 3, 6, 9, 12, and 24 h), 100 μL aliquots were taken from each sample and serially diluted (10-fold dilutions) in sterile ddH2O. 100 μL of each dilution was spread onto PDA plates and incubated at 35° C. for 48 h before colony counts were determined (FIGS. 2A-B). At the end of the 24-h experiment, 50 μL of 1 mM sterile resazurin solution was added to each sample for visual comparison of growth. Each experiment was performed in duplicate.

[9] = system: C. albicans ATCC 64124 (strain F) biofilm; experiment: Biofilm disruption assay (XTT, SMIC99), azoles + compound 2; format: cell-based, Candida albicans; conditions: for FICI / Interp.: biofilm
Procedure: In order to investigate the synergistic effect of azoles and our compounds on inhibiting biofilm formation of C. albicans ATCC 64124 (strain F), we performed a biofilm disruption assay in a checkerboard setup and used XTT [2,3-bis(2-methoxy-4-nitro-5-sulfophenyl)-2H-tetrazolium-5-carboxanilide] reduction to examine the metabolic activity of the biofilm. Briefly, C. albicans ATCC 64124 (strain F) was grown overnight in YEPD broth at 35° C. The culture was then diluted to an OD600 of 0.12 (equivalent to 1×10^6 CFU/mL) and 100 μL was placed into each well of a 96-well plate. The cells were incubated at 37° C. for 24 h for growth. The following day, the spent medium containing planktonic cells was aspirated and each wells were carefully washed three times with sterile phosphate buffer saline (PBS). […] The negative control (medium only) and the positive control (biofilm plus medium) wells were also included in the same 96-well plate. The plates were then incubated at 37° C. statically for additional 24 h and then washed with sterile PBS. 100 μL of a XTT (0.5 mg/mL)/menadione (1 μM) solution was added to each well, covered with aluminum foil, and incubated for 2 h at 37° C. Then, 80 μL of the colored supernatant from each well was transferred to a new 96-well plate, and the absorption was read at OD490. The percent metabolic activity of the formed biofilm at various drug concentration combinations was calculated by dividing the metabolic activity of biofilm formed for that well by that of the biofilm formed in the growth control well (in the absence of any drug). For these experiments, the sessile MIC (SMIC99) was determined, which is defined as the drug concentration required to inhibit the metabolic activity of biofilm by 99% compared to the growth control. The assay for each combination was performed in duplicates.

J774A.1 cells = experiment: Mammalian cytotoxicity assay, azoles and compound 2
Excerpt: (§4) David K. Orren (University of Kentucky, Lexington, Ky.) and Prof. David J. Feola (University of Kentucky, Lexington, Ky.), respectively.

BEAS-2B cells = experiment: as above; format: cell-based, human
Excerpt: as §4

HEK-293 cells = experiment: as above; format: cell-based, human
Excerpt: as §4

[10] = combination with POS at 8×MICcombo
[11] = combination with VOR at 8×MICcombo
[12] = azole 16 μg/mL + 8 μg/mL compound 2
[13] = azole at any concentration + 32 μg/mL compound 2
[14] = drug alone, up to highest concentration tested (azoles 16 μg/mL, compound 2 64 μg/mL)

SMILES: C[C@@H]1[C@H](O)[C@@H](C)/C=C/C=C/C=C/C=C/C=C/C=C/C=C/[C@H](O[C@@H]2O[C@H](C)[C@@H](O)[C@H](N)[C@@H]2O)C[C@@H]2O[C@](O)(C[C@@H](O)C[C@@H](O)[C@H](O)CC[C@@H](O)C[C@@H](O)CC(=O)O[C@H]1C)C[C@H](O)[C@H]2C(=O)O [AMB, amphotericin B]
SMIC90 [1]: >32 µg/mL
SMIC90 [2]: 4 µg/mL

SMILES: O=C(CCCN1CCC(O)(c2ccc(Br)cc2)CC1)c1ccccc1 [Compound 1]
combinational effect (FICI interpretation) ([3]; in combination with POS): partial synergy
combinational effect (FICI interpretation) ([3]; in combination with VOR): partial synergy
combinational effect (FICI interpretation) ([4]; in combination with POS): synergy; also recorded: synergistic interactions
combinational effect (FICI interpretation) ([4]; in combination with VOR): partial synergy
combinational effect (FICI interpretation) ([5]; in combination with POS): partial synergy
combinational effect (FICI interpretation) ([5]; in combination with VOR): strong additive effect

SMILES: O=C(CCCN1CCC(O)(c2ccc(Br)cc2)CC1)c1ccc(F)cc1 [Compound 2, bromperidol]
combinational effect (FICI interpretation) ([3]; in combination with ITC): partial synergy
combinational effect (FICI interpretation) ([3]; in combination with KTC): partial synergy
combinational effect (FICI interpretation) ([3]; in combination with POS): partial synergy
combinational effect (FICI interpretation) ([3]; in combination with VOR): partial synergy
MIC in combination ([4]; combination compound 2 + ITC): 64 µg/mL
MIC in combination ([4]; combination compound 2 + POS): 4 µg/mL
MICalone [4]: 128 µg/mL
FICI ([4]; in combination with ITC): 0.56
combinational effect (FICI interpretation) ([4]; in combination with ITC): partial synergy
combinational effect (FICI interpretation) ([4]; in combination with KTC): partial synergy
FICI ([4]; in combination with POS): 0.16
combinational effect (FICI interpretation) ([4]; in combination with POS): synergy
combinational effect (FICI interpretation) ([4]; in combination with VOR): synergy
combinational effect (FICI interpretation) ([6]; in combination with POS): synergy
combinational effect (FICI interpretation) ([6]; in combination with VOR): synergy
combinational effect (FICI interpretation) ([5]; in combination with POS): partial synergy
combinational effect (FICI interpretation) ([5]; in combination with VOR): partial synergy
combinational effect (FICI interpretation) [7]: synergy; also recorded: synergistic
CFU/mL throughout 24 h [8, 10]: around 1×10^5 CFU/mL
time-kill effect [8, 10]: fungistatic effect
reduction in CFU/mL over 24 h [8, 11]: about 1 log10 unit
time-kill effect [8, 11]: fungistatic effect
increase in CFU/mL ([8]; drug alone at the concentration of the 8×MICcombo sample, 24 h): about 1 order of magnitude
FICI ([9]; in combination with POS): 1.02
Interp. ([9]; in combination with POS): ADD*
FICI ([9]; in combination with VOR): 1.02
Interp. ([9]; in combination with VOR): ADD*
SMIC alone (μg/mL) Cpd ([9]; compound alone, sessile cells): >128 µg/mL
SMIC combo (μg/mL) Cpd ([9]; compound in combination with POS): 128 µg/mL
SMIC combo (μg/mL) Cpd ([9]; compound in combination with VOR): 128 µg/mL
cell survival (J774A.1 cells; drug alone at 16 μg/mL): 72±14%
cell survival (J774A.1 cells; drug alone at 32 μg/mL): 50±7%
cell survival (J774A.1 cells; drug alone at 64 μg/mL): 30±4%
highest concentration at which no cytotoxicity was observed (J774A.1 cells; drug alone, stated for all three cell lines (BEAS-2B, HEK-293, J774A.1), J774A.1 limiting): 8 µg/mL

SMILES: O=C(CCCN1CCC(O)(c2ccc(Br)cc2)CC1)c1ccc(Cl)cc1 [Compound 3]
combinational effect (FICI interpretation) ([3]; in combination with KTC): partial synergy
combinational effect (FICI interpretation) ([3]; in combination with POS): partial synergy
combinational effect (FICI interpretation) ([3]; in combination with VOR): partial synergy
combinational effect (FICI interpretation) ([4]; in combination with KTC): partial synergy
combinational effect (FICI interpretation) ([4]; in combination with POS): synergy; also recorded: synergistic interactions
combinational effect (FICI interpretation) ([4]; in combination with VOR): partial synergy; also recorded: synergistic interactions

SMILES: O=C(CCCN1CCC(O)(c2ccc(Br)cc2)CC1)c1ccc(Br)cc1 [Compound 4]
combinational effect (FICI interpretation) ([3]; in combination with KTC): partial synergy
combinational effect (FICI interpretation) ([4]; in combination with KTC): partial synergy
combinational effect (FICI interpretation) ([4]; in combination with POS): synergistic interactions
combinational effect (FICI interpretation) ([4]; in combination with VOR): Partial synergy
combinational effect (FICI interpretation) ([5]; in combination with POS): synergistic; also recorded: strong synergy

SMILES: COc1ccc(C(=O)CCCN2CCC(O)(c3ccc(Br)cc3)CC2)cc1 [Compound 5]
combinational effect (FICI interpretation) ([3]; in combination with VOR): Partial synergy
fold reduction in MIC (combination vs alone) ([4]; combination compound 5 + VOR): 16 fold
MICalone [4]: > 128 µg/mL
FICI ([4]; in combination with POS): 0.13
combinational effect (FICI interpretation) ([4]; in combination with POS): synergistic interactions
combinational effect (FICI interpretation) ([4]; in combination with VOR): strong additive effect
combinational effect (FICI interpretation) ([5]; in combination with POS): partial synergy
combinational effect (FICI interpretation) [7]: synergistic

MIC in combination ([4]; combination compound 2 + ITC): 2 µg/mL
fold reduction in MIC (combination vs alone) ([4]; combination compound 2 + ITC): 16 fold
SMILES: CCC(C)n1ncn(-c2ccc(N3CCN(c4ccc(OCC5COC(Cn6cncn6)(c6ccc(Cl)cc6Cl)O5)cc4)CC3)cc2)c1=O (centres unmarked) [ITC, itraconazole]

MIC in combination ([4]; combination compound 5 + VOR): 2 µg/mL
SMILES: C[C@@H](c1ncncc1F)[C@](O)(Cn1cncn1)c1ccc(F)cc1F [VOR, voriconazole]
SMIC alone (μg/mL) Azole ([9]; azole alone, sessile cells): >32 µg/mL
SMIC combo (μg/mL) Azole ([9]; azole in combination with compound 2): 0.5 µg/mL
cytotoxicity (BEAS-2B cells; [12]): no toxicity
cytotoxicity (BEAS-2B cells; [13]): no toxicity
cytotoxicity (BEAS-2B cells; [14]): No cytotoxic effect
cytotoxicity (HEK-293 cells; [12]): no toxicity
cytotoxicity (HEK-293 cells; [13]): no toxicity
cytotoxicity (HEK-293 cells; [14]): No cytotoxic effect
cytotoxicity (J774A.1 cells; [12]): no toxicity
cytotoxicity (J774A.1 cells; drug alone, any concentration tested (up to 16 μg/mL)): No cytotoxic effect
